Article PMC10175918 (Communications Biology, 2023)
Read-outs that look alike come from different tables or passages of the source.

Legend:
Assay in all cases: TGFα-shedding assay-based GPCR screening with chimeric Gα subunit proteins
Format in all cases: cell-based
348 GPCRs [1] = biological target: T1, 348 GPCRs (Homo sapiens, UniProt P32302)
T1 construct: expressed in transfected cells; host or cells: HEK293A
T1 sequence (P32302 1-372): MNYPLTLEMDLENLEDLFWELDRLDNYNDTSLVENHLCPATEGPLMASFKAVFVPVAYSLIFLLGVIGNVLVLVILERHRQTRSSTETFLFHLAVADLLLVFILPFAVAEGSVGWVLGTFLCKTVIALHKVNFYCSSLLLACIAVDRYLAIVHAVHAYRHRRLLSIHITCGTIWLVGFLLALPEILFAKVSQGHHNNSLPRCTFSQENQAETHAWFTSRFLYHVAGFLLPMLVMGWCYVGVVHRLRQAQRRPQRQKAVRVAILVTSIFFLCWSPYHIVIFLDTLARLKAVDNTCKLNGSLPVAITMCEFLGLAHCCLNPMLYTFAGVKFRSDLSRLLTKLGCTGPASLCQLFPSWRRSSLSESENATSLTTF

348 GPCRs [2] = biological target: T2, 348 GPCRs (Homo sapiens, UniProt Q96PE1)
T2 sequence (Q96PE1 34-1338): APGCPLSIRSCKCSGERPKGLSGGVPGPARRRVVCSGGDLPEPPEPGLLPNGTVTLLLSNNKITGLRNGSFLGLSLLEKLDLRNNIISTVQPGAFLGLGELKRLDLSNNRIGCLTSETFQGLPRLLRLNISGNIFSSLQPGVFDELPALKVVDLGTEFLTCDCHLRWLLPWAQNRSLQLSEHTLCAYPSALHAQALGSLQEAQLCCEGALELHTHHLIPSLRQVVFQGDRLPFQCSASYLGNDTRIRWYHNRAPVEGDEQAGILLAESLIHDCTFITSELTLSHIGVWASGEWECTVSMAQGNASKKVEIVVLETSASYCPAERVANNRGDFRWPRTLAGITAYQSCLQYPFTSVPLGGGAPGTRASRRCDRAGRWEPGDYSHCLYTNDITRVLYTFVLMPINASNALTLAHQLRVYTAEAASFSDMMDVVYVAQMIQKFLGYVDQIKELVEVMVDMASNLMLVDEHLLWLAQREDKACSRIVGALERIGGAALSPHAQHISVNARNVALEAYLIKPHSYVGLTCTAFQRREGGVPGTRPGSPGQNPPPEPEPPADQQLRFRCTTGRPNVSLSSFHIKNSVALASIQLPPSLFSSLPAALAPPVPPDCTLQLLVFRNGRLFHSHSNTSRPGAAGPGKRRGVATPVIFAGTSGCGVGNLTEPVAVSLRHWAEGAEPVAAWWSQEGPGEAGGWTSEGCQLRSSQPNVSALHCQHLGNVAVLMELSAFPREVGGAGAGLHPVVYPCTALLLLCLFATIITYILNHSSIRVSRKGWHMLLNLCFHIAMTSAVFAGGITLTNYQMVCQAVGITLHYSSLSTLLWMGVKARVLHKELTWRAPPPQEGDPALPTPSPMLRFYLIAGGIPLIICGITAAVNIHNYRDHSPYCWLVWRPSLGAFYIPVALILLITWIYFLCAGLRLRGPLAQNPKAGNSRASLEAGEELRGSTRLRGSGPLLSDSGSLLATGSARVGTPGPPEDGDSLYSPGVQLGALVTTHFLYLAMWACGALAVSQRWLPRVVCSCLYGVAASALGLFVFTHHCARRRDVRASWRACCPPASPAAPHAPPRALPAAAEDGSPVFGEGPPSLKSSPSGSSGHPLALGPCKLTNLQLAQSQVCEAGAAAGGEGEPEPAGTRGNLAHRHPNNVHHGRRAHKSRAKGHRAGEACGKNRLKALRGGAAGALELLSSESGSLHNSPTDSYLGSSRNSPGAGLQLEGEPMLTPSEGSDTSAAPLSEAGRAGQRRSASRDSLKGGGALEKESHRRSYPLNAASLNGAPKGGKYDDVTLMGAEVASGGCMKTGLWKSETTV

348 GPCRs [3] = biological target: T3, 348 GPCRs (Homo sapiens, UniProt Q86SP6); conditions: 10µM, Favipiravir 100μM
T3 construct: expressed in transfected cells; host or cells: HEK293A
T3 sequence (Q86SP6 1-731): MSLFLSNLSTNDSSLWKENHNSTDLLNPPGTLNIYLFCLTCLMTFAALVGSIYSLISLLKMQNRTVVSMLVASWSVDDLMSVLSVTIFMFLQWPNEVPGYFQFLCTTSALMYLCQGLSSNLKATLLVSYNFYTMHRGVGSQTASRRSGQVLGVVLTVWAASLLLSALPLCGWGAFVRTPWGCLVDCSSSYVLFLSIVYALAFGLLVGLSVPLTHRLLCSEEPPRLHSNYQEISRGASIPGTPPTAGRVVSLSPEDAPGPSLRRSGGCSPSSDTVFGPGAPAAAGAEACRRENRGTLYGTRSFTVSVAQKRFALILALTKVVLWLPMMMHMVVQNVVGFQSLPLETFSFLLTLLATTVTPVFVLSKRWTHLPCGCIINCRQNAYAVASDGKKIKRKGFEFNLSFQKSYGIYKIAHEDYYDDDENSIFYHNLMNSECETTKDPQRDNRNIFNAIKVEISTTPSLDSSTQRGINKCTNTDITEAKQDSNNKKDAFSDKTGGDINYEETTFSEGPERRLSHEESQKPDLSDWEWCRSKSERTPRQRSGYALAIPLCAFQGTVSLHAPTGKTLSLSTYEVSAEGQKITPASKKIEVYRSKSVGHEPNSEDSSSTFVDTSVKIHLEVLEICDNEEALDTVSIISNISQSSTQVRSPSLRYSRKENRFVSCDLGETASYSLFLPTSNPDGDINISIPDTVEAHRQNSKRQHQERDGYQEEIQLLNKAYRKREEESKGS

348 GPCRs [4] = biological target: T4, 348 GPCRs (Homo sapiens, UniProt P43116); conditions: 10µM, Favipiravir 100μM
T4 construct: expressed in transfected cells; host or cells: HEK293A
T4 sequence (P43116 whole entry): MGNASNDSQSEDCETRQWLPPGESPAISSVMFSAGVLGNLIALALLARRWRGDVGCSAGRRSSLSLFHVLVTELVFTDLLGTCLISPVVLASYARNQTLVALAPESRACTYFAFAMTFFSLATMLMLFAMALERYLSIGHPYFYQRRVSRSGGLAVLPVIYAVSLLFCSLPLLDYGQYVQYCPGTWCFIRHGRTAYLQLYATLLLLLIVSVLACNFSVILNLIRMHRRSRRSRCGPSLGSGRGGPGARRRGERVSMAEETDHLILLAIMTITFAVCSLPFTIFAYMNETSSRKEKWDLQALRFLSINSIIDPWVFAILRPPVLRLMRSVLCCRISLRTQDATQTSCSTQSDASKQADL

[5] = GPCR CXCR5 (C-X-C motif chemokine receptor 5), read-out: % GPCR activation compared to TPA
[6] = GPCR GPR124 (Adhesion G Protein-Coupled Receptor A2 (ADGRA2)), read-out: % GPCR activation compared to TPA
[7] = GPR149 (G protein-coupled receptor 149), read-out: % GPCR activation compared to TPA
[8] = EP2 (prostaglandin E receptor 2), read-out: % GPCR activation compared to TPA
[9] = read-out: % GPCR activation compared to TPA, GPCR CXCR5 (C-X-C motif chemokine receptor 5)
[10] = read-out: % GPCR activation compared to TPA, GPCR GPR124 (Adhesion G Protein-Coupled Receptor A2 (ADGRA2))
[11] = read-out: % GPCR activation compared to TPA, GPR149 (G protein-coupled receptor 149)
[12] = read-out: % GPCR activation compared to TPA, EP2 (prostaglandin E receptor 2)

| SMILES | activation at 10 µM (348 GPCRs [1]; [5]) [%] | activation at 10 µM (348 GPCRs [2]; [6]) [%] | activation at 100 µM (348 GPCRs [3]; [7]) [%] | activation at 10 µM (348 GPCRs [4]; [8]) [%] | activation at 100 µM (348 GPCRs [1]; GPCR CXCR5 (C-X-C motif chemokine receptor 5), 100μM, read-out: % GPCR activation compared to TPA) [%] | activation at 100 µM (348 GPCRs [2]; GPCR GPR124 (Adhesion G Protein-Coupled Receptor A2 (ADGRA2)), 100μM, read-out: % GPCR activation compared to TPA) [%] | activation at 10 µM (348 GPCRs [1]; [9]) [%] | activation at 10 µM (348 GPCRs [2]; [10]) [%] | activation at 100 µM (348 GPCRs [3]; [11]) [%] | activation at 10 µM (348 GPCRs [4]; [12]) [%] |
| --- | --- | --- | --- | --- | --- | --- | --- | --- | --- | --- |
| CC(C)C(=O)OC[C@H]1O[C@@H](n2ccc(NO)nc2=O)[C@H](O)[C@@H]1O [molnupiravir] | -2 | -0.928 | -41.7 | -0.705 | – | – | – | – | – | – |
| CCC(CC)COC(=O)[C@H](C)N[P@](=O)(OC[C@H]1O[C@@](C#N)(c2ccc3c(N)ncnn23)[C@H](O)[C@@H]1O)Oc1ccccc1 [remdesivir] | – | – | – | – | – | – | -0.166 | -0.926 | -0.636 | 1.83 |
| CC(C)OC(=O)[C@H](C)N[P@](=O)(OC[C@H]1O[C@@H](n2ccc(=O)[nH]c2=O)[C@](C)(F)[C@@H]1O)Oc1ccccc1 [sofosbuvir] | – | – | – | – | – | – | -0.968 | 1.09 | -7.06 | -1.21 |

More lines, main results first:

| activation at 10 µM (348 GPCRs [1]; [5]) [%] | activation at 10 µM (348 GPCRs [2]; [6]) [%] | activation at 100 µM (348 GPCRs [3]; [7]) [%] | activation at 10 µM (348 GPCRs [4]; [8]) [%] | activation at 100 µM (348 GPCRs [1]; GPCR CXCR5 (C-X-C motif chemokine receptor 5), 100μM, read-out: % GPCR activation compared to TPA) [%] | activation at 100 µM (348 GPCRs [2]; GPCR GPR124 (Adhesion G Protein-Coupled Receptor A2 (ADGRA2)), 100μM, read-out: % GPCR activation compared to TPA) [%] | SMILES | activation at 10 µM (348 GPCRs [1]; [9]) [%] | activation at 10 µM (348 GPCRs [2]; [10]) [%] | activation at 100 µM (348 GPCRs [3]; [11]) [%] | activation at 10 µM (348 GPCRs [4]; [12]) [%] |
| --- | --- | --- | --- | --- | --- | --- | --- | --- | --- | --- |
| -2.05 | 0.29 | -0.814 | -0.304 | – | – | N#C[C@@]1(c2ccc3c(N)ncnn23)O[C@H](CO)[C@@H](O)[C@H]1O [GS441524] | – | – | – | – |
| – | – | 0.0439 | 0.965 | -2.18 | -1.17 | NC(=O)c1nc(F)cnc1O [favipiravir, 6-fluoro-3-hydroxy-2-pyrazinecarboxamide] | – | – | – | – |
